According to patent US20250361230A1, “LATS Inhibitors and Uses Thereof” (The USA, as Represented by the Secretary, Dept. of Heath …, priority 2022, published 2025):

Target: T1, LATS1 Kinase-NanoLuc fusion in HEK-293 cells (Homo sapiens, UniProt O95835)
T1 construct: host or cells: HEK-293
T1 sequence (O95835 1-1130): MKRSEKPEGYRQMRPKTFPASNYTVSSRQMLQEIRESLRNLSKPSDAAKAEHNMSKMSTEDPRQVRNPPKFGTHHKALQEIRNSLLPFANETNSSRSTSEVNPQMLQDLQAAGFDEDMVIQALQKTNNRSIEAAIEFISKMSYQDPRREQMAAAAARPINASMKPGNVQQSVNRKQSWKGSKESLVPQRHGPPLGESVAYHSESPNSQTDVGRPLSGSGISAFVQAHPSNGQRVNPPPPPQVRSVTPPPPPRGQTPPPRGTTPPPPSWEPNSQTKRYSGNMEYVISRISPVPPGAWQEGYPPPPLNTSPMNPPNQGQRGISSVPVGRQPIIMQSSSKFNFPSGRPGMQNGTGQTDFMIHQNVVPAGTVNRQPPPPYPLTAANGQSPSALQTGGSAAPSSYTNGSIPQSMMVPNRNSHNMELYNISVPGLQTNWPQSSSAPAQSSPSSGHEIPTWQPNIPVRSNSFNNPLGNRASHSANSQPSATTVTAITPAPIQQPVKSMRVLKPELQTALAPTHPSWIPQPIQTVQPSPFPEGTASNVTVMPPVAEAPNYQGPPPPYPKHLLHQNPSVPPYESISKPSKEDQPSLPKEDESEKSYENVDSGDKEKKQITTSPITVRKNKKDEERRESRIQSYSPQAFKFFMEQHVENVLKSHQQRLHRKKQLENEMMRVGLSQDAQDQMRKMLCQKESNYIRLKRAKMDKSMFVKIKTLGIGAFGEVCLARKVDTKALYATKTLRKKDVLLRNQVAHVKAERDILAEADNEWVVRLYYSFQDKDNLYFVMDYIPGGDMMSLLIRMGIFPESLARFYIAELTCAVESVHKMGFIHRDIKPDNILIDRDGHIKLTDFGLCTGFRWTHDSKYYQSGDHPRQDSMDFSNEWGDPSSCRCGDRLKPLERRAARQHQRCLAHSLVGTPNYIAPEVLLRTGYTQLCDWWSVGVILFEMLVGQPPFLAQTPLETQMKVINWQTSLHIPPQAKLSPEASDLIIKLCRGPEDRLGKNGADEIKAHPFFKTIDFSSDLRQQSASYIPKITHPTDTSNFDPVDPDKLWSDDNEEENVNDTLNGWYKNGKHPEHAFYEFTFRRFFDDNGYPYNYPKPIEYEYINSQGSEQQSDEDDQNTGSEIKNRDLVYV
Assay: NanoBRET target engagement assay in transfected HEK-293 cells, LATS1
Assay type: cell-based
Conditions: cellular
Summary of the method: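 HEK-293 cells transiently transfected with kinase-NanoLuc fusion plasmid for 22-24 h, then incubated with compound and NanoBRET tracer for 1 hour at 37° C. After substrate plus extracellular NanoLuc inhibitor addition, 460 and 600 nm emissions read; no-tracer-corrected BRET ratio used to derive IC50 values.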

An IC50 of 0.015 µM was found for `Cc1cc(-c2ccnc3[nH]cc(C#N)c23)ccc1[C@@]1(O)[C@H](C)CN(C2CCS(=O)(=O)CC2)C[C@@H]1C` [Compound 2003, 4-(4-((3S,4s,5R)-1-(1,1-dioxidotetrahydro-2H-thiopyran-4-yl)-4-hydroxy-3,5-dimethylpiperidin-4-yl)-3-methylphenyl)-1H-pyrrolo[2,3-b]pyridine-3-carbonitrile] in this work.
